Measurements from patent US11261189B2, “Substituted 2,4 diamino-quinoline as new medicament for fibrosis, autophagy and cathepsins B (CTSB), L (CTSL) and D (CTSD) related diseases” (Genoscience Pharma, priority 2018, dated 2022).
Counter-ions that a name gives are not always drawn.

Assays:
Assay type in all cases: cell-based
cathepsin B (CTSB) = biological target: T1, cathepsin B (CTSB) (Homo sapiens, UniProt P07858); assay: Cathepsin B (CTSB) catalytic activity in lysates of treated HepG2 cells (Z-RR-AMC substrate); settings: for CTSB activity versus NT: 6 hours of treatment
T1 construct: endogenous in cells; host or cells: HepG2
Experimental: (§1) Lysosomal functions was investigated in a hepatocellular carcinoma (HCC) cell line HepG2 after 6 hours and 24 hours of treatment with compound 2-3 (the hydrochloride salt form of compound 2-2) using functional assays of some lysosomal enzymes activity: two cysteine proteinases: cathepsin B (CTSB) and cathepsin L (CTSL), and one aspartic proteinase: cathepsin D (CTSD). Two sets of three concentrations of compound 2-3 (1 μM, 2 μM, and 4 μM for 6 hours, and 0.5 μM, 1 μM and 2 μM for 24 hours) were tested at least in triplicate and four independent experiments were performed. Salinomycin (7.5 μM for 6 hours and 24 hours) was used as a positive control.
(§2) The HepG2 cell line was maintained in DMEM (Dulbecco's Modified Eagle Media) high glucose (Cat #L0103-500, Dutscher) containing 1% penicillin-streptomycin (Cat #P06-07100, Dutscher) and 10% FBS (Fetal Bovine Serum) (Cat #11543407, Life Technologies). Cells were cultured at 37° C. with 5% CO2.
(§3) The day before the experiment, 6-well plates (Cat #353046, Dutscher) with 250,000 cells in 2.7 mL of medium per well were prepared.
(§4) Compound 2-3 was dissolved with filtrated H2O mQ to make a 10 mM stock solution and serial working solutions (10× solutions) were prepared with the diluent (=culture medium with 0.4% H2O mQ) at 5 μM, 10 μM, 20 μM and 40 μM: the “dilution 1” is made from the 10 mM stock solution in the culture medium and the following serial dilutions were made in the diluent to maintain a constant percentage of H2O.
(§5) Salinomycin [CAS 53003-10-4] was used as positive control and was dissolved with methanol to make a 10 mM stock solution and a 10× solution at 75 μM was prepared with the culture medium.
(§6) 300 μL of compound 2-3 10× solutions (solutions at 10 μM, 20 μM and 40 μM for 6 hours of treatment and solutions at 5 μM, 10 μM and 20 μM for 24 hours of treatment) or 300 μL of diluent (=non-treated (NT) condition) or 300 μL of Salinomycin 10× solution were dispensed in the appropriate wells (4 wells/condition). After cells treatment, 6-well plates were returned to incubator for 6 hours or 24 hours.
(§7) After 6 hours or 24 hours of cells treatment, the medium was removed from each well. The cells were carefully rinsed with PBS (phosphate-buffered saline, Cat #L0615-500, Dutscher) and detached with 500 μL per well of a trypsin solution. After 5 min of trypsin (Cat #L0930-100, Dutscher) incubation at 37° C., 800 μL of medium was added per well and transferred to a 1.5 mL tube. Then, 800 μL of PBS was used to rinse each well and the corresponding solution was pooled in each corresponding 1.5 mL tube. […] Total protein concentration was assessed using the Bradford reagent (Cat #B6916-500ML, Sigma-Aldrich) and cellular lysates were stored at −80° C. until catalytic activity measurement. […]

cathepsin D (CTSD) = biological target: T2, cathepsin D (CTSD) (Homo sapiens, UniProt P07339); assay: Cathepsin D (CTSD) peptidase activity in lysates of treated HepG2 cells (MOCAc quenched fluorogenic substrate)
T2 construct: cell lysates (1 μg of total proteins) were pre-incubated with citrate buffer pH 4.0; endogenous in cells; host or cells: HepG2
Experimental: as §1, §2, §3, §4
Salinomycin [CAS 53003-10-4] was used as positive control and was dissolved with methanol to make a 10 mM stock solution and a 10× solution at 75 μM was prepared with the culture medium. […]
After 6 hours or 24 hours of cells treatment, the medium was removed from each well. […] Total protein concentration was assessed using the Bradford reagent (Cat #B6916-500ML, Sigma-Aldrich) and cellular lysates were stored at −80° C. until catalytic activity measurement. […]

[1] = system: cathepsins B and L (CTSB/L); assay: Overall cathepsins B and L (CTSB/L) peptidase activity in lysates of treated HepG2 cells (Z-FR-AMC substrate); settings: for CTSB/L activity versus NT: 6 hours of treatment
Experimental: as §1, §2, §3, §4, §5, §6, §7

T2 sequence (P07339 65-412): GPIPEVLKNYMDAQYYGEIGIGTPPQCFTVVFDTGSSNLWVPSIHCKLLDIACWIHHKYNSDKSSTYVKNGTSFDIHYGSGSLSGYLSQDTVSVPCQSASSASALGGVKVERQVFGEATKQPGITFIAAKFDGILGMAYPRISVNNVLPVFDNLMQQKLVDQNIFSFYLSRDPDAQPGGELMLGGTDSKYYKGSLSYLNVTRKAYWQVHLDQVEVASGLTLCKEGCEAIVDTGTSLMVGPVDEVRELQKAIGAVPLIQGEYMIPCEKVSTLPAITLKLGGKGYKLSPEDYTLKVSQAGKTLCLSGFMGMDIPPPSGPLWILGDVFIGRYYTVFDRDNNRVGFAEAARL

CTSB activity versus NT (cathepsin B (CTSB); HepG2, 2 μM): 75.4% | CTSB activity versus NT (cathepsin B (CTSB); HepG2, 4 μM): 54.0% | inhibition of cathepsin B (CTSB) compare to the control (cathepsin B (CTSB); HepG2, 2 μM, 4 μM for 6 hours and 2 μM for 24 hours, p<0.05): statistically significant | CTSD activity versus NT (cathepsin D (CTSD); HepG2, 4 μM, 6 hours of treatment): 60.6% | inhibition of cathepsin D (CTSD) compare to the control (cathepsin D (CTSD); HepG2, 4 μM for 6 hours and 2 μM for 24 hours, p<0.05): statistically significant
Compound: CC(C)(C)NC1CCN(c2cc(NCc3ccc(Cl)cc3)nc3ccccc23)CC1 [2-3, 2-(4-chlorobenzylamino)-4-(4-tert-butylaminopiperidin-1-yl)-quinoline Hydrochloride Salt]
CTSB/L activity versus NT ([1]; HepG2, 2 μM): 78.0% | CTSB/L activity versus NT ([1]; HepG2, 4 μM): 55.3% | inhibition of cathepsins B and L (CTSB/L) compare to the control ([1]; HepG2, 2 μM, 4 μM for 6 hours and 1 μM, 2 μM for 24 hours, p<0.05): statistically significant
